Reference: publication PMC7971191 (Journal of medicinal chemistry, 2020)

Key:
[1] = system: wild-type HIV-1 (NL4-3 strain); experiment: Cell-based antiviral assay; conditions: for fold less active than 12a in antiviral assays: compared with 12a
wild-type HIV-1 protease = wild-type HIV-1 protease (Human immunodeficiency virus type 1 group M subtype B, UniProt P12497, Q495K); assay type: biochemical, HIV-1 (NL4-3 strain); conditions: for fold less active than the corresponding tert-leucine analogue: 12b vs 12a, 15b vs 15a, inhibitory potency
HIV-1 protease I50V/A71V = HIV-1 protease I50V/A71V (Human immunodeficiency virus type 1 group M subtype B, UniProt P12497, A559V/I538V/Q495K); assay type: biochemical, HIV-1 (NL4-3 strain); conditions: Ki compared with 12a

Cc1cccc(C)c1OCC(=O)N[C@@H](Cc1ccccc1)C[C@H](O)[C@H](Cc1ccccc1)NC(=O)O[C@H]1CO[C@H]2OCC[C@H]21 [Compound 5, reference compound]
fold better antiviral potency than 4 ([1]; compared with compound 4): 2 fold

COC(=O)N[C@H](C(=O)N[C@@H](Cc1ccccc1)[C@@H](O)C[C@H](Cc1ccccc1)NC(=O)O[C@H]1CO[C@H]2OCC[C@H]21)C(C)(C)C [Compound 12a, (3R,3aS,6aR)-Hexahydrofuro[2,3-b]furan-3-yl ((2S,4S,5S)-4-hydroxy-5-((S)-2-((methoxycarbonyl)amino)-3,3-dimethylbutanamido)-1,6-diphenylhexan-2-yl)carbamate]
fold more potent than 15a in antiviral assays ([1]; wild-type HIV-1, compared with 15a): 3 fold

COC(=O)NC1(C(=O)N[C@@H](Cc2ccccc2)[C@@H](O)C[C@H](Cc2ccccc2)NC(=O)O[C@H]2CO[C@H]3OCC[C@H]32)CCCC1 [Compound 12b, (3R,3aS,6aR)-Hexahydrofuro[2,3-b]furan-3-yl ((2S,4S,5S)-4-hydroxy-5-(1-((methoxycarbonyl)amino)cyclopentane-1-carboxamido)-1,6-diphenylhexan-2-yl)carbamate]
fold less active than the corresponding tert-leucine analogue (wild-type HIV-1 protease): > 2500 fold

COC(=O)N[C@@H](C)C(=O)N[C@@H](Cc1ccccc1)[C@@H](O)C[C@H](Cc1ccccc1)NC(=O)O[C@H]1CO[C@H]2OCC[C@H]21 [Compound 12d, (3R,3aS,6aR)-Hexahydrofuro[2,3-b]furan-3-yl ((2S,4S,5S)-4-hydroxy-5-((S)-2-((methoxycarbonyl)amino)propanamido)-1,6-diphenylhexan-2-yl)carbamate]
fold less active than 12a in antiviral assays [1]: 6 fold

COC(=O)N[C@H](C(=O)N[C@@H](Cc1ccccc1)[C@@H](O)C[C@H](Cc1ccccc1)NC(=O)O[C@H]1CO[C@H]2OCC[C@H]21)C(C)C [Compound 12e, (3R,3aS,6aR)-Hexahydrofuro[2,3-b]furan-3-yl ((2S,4S,5S)-4-hydroxy-5-((S)-2-((methoxycarbonyl)amino)-3-methylbutanamido)-1,6-diphenylhexan-2-yl)carbamate]
fold less active against wild-type protease (wild-type HIV-1 protease; valine analogue compared with alanine analogue 12d / 12a): 4 fold
fold less active than 12a in antiviral assays [1]: 5 fold

COC(=O)N[C@H](C(=O)N[C@@H](Cc1ccccc1)C[C@H](O)[C@H](Cc1ccccc1)NC(=O)O[C@H]1CO[C@H]2OCC[C@H]21)C(C)(C)C [Compound 15a, (3R,3aS,6aR)-Hexahydrofuro[2,3-b]furan-3-yl ((2S,3S,5S)-3-hydroxy-5-((S)-2-((methoxycarbonyl)amino)-3,3-dimethylbutanamido)-1,6-diphenylhexan-2-yl)carbamate]
fold more active than 12a against the I50V/A71V variant (HIV-1 protease I50V/A71V): 4 fold

COC(=O)NC1(C(=O)N[C@@H](Cc2ccccc2)C[C@H](O)[C@H](Cc2ccccc2)NC(=O)O[C@H]2CO[C@H]3OCC[C@H]32)CCCC1 [Compound 15b, (3R,3aS,6aR)-Hexahydrofuro[2,3-b]furan-3-yl ((2S,3S,5S)-3-hydroxy-5-(1-((methoxycarbonyl)amino)cyclopentane-1-carboxamido)-1,6-diphenylhexan-2-yl)carbamate]
fold less active than the corresponding tert-leucine analogue (wild-type HIV-1 protease): 560 fold
